Source: ChEMBL document CHEMBL1201862, “PubChem BioAssay data set” (2004)
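All cell lines were grown in 96-well plates and treated with compound for 48 hours. Abbreviation: GI50, concentration required for 50% inhibition of growth.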 The source made the active and inactive calls. No stated cut-off is given here; in the data, active = GI50 up to about 1.1 µM and inactive = higher.

How the values were obtained:
Assay in all cases: inhibition of tumour cell growth, NCI panel, 48 h
[1] = test system: HCT-15
[2] = test system: A498
[3] = test system: M14
[4] = test system: RPMI-8226
[5] = test system: U-251
[6] = test system: UACC-62
[7] = test system: UO-31
[8] = test system: Malme-3M
[9] = test system: HT-29
[10] = test system: ACHN
[11] = test system: CAKI-1
[12] = test system: LOX IMVI
[13] = test system: NCI-H23
[14] = test system: K562
[15] = test system: SF-268
[16] = test system: BT-549
[17] = test system: HL-60
[18] = test system: SNB-19
[19] = test system: HOP-62
[20] = test system: MDA-N

Measured: GI50

CC(=O)OCC1OC(Nn2c(=O)[nH]c3ccccc3c2=O)C(OC(C)=O)C(OC(C)=O)C1OC(C)=O (stereo not drawn)
> 100 µM: [1]
inactive: [2] > 100 µM | [3] > 100 µM | [4] > 100 µM | [5] > 100 µM | [6] > 100 µM | [7] 70.3 µM | [8] > 100 µM | [9] > 100 µM | [10] > 100 µM | [11] > 100 µM | [12] > 100 µM | [13] > 100 µM | [14] > 100 µM | [15] > 100 µM | [16] > 100 µM | [17] > 100 µM | [18] > 100 µM | [19] > 100 µM | [20] > 100 µM

CC(=O)Nc1cc([As](=O)(O)O)ccc1O [ACETARSONE]
inactive: [2] > 100 µM | [3] > 100 µM | [4] > 100 µM | [5] > 100 µM | [6] > 100 µM | [7] > 100 µM | [8] > 100 µM | [9] > 100 µM | [10] > 100 µM | [11] > 100 µM | [12] > 100 µM | [13] > 100 µM | [14] > 100 µM | [15] > 100 µM | [16] > 100 µM | [17] > 100 µM | [18] > 100 µM | [19] > 100 µM | [20] > 100 µM
> 100 µM: [1]

CCCCc1ccc(Nc2nc(Cl)c3c(ncn3C3CC(Oc4ccc(C)cc4)C(COc4ccc(C)cc4)O3)n2)cc1 (stereo not drawn)
inactive: [2] > 100 µM | [3] > 100 µM | [4] > 100 µM | [5] > 100 µM | [6] > 100 µM | [7] > 100 µM | [8] > 100 µM | [9] > 100 µM | [10] > 100 µM | [11] > 100 µM | [12] > 100 µM | [13] > 100 µM | [14] > 100 µM | [15] > 100 µM | [16] > 100 µM | [17] 87.7 µM | [18] > 100 µM | [19] > 100 µM | [20] > 100 µM
> 100 µM: [1]

CN(C)CCNC(=O)c1cccc2ccc(-c3ccc(O)cc3)nc12
active: [3] 0.664 µM | [8] 1.05 µM | [12] 0.743 µM | [14] 0.839 µM | [17] 0.847 µM
2.75 µM: [1]
inactive: [2] 2.64 µM | [4] 2.39 µM | [5] 2.06 µM | [6] 1.39 µM | [7] 2.39 µM | [9] 3.13 µM | [10] 1.37 µM | [11] 1.19 µM | [13] 3.09 µM | [15] 3.92 µM | [16] 6.82 µM | [18] 1.31 µM | [19] 1.47 µM | [20] 2.39 µM

Nc1ncnc2oc(C3OC(COC(=O)c4ccccc4)C(OC(=O)c4ccccc4)C3OC(=O)c3ccccc3)nc12 (stereo not drawn)
inactive: [2] 14.8 µM | [3] > 100 µM | [4] > 100 µM | [5] > 100 µM | [6] 74.8 µM | [7] > 100 µM | [8] 96.2 µM | [9] > 100 µM | [10] > 100 µM | [11] > 100 µM | [12] > 100 µM | [13] > 100 µM | [14] > 100 µM | [15] > 100 µM | [16] > 100 µM | [17] > 100 µM | [18] > 100 µM | [19] > 100 µM | [20] > 100 µM
> 100 µM: [1]

CC(=O)c1c2c(c3ccccc3c1O)O[C@@H]1OCC[C@H]21
inactive: [2] > 100 µM | [3] > 100 µM | [4] 94.6 µM | [5] > 100 µM | [6] > 100 µM | [7] > 100 µM | [8] > 100 µM | [9] > 100 µM | [10] > 100 µM | [11] > 100 µM | [12] > 100 µM | [13] > 100 µM | [14] > 100 µM | [15] > 100 µM | [16] 48.4 µM | [17] > 100 µM | [18] > 100 µM | [19] > 100 µM | [20] > 100 µM
> 100 µM: [1]

Cc1cc(C(C)(C)C)c(OCCCN2CCOCC2)c(C(C)(C)C)c1
inactive: [2] 18.9 µM | [3] 16.8 µM | [4] 14.1 µM | [5] 18 µM | [6] 16 µM | [7] 18.3 µM | [8] 20.1 µM | [9] 16.3 µM | [10] 17.4 µM | [11] 19.1 µM | [12] 20.6 µM | [13] 17.5 µM | [14] 16.6 µM | [15] 18.7 µM | [16] 17.5 µM | [17] 14.1 µM | [18] 17.3 µM | [19] 19.5 µM | [20] 18.1 µM
18 µM: [1]

O=C1C=CC(=O)c2c1ccc1c3ccccc3n(CCCCCCCCCCCCn3c4ccccc4c4ccc5c(c43)C(=O)C=CC5=O)c21
inactive: [2] > 100 µM | [3] > 100 µM | [4] > 100 µM | [5] > 88.7 µM | [6] > 100 µM | [7] > 100 µM | [8] > 100 µM | [9] > 100 µM | [10] > 100 µM | [11] > 100 µM | [12] > 100 µM | [13] > 100 µM | [14] > 72.4 µM | [15] > 100 µM | [16] > 100 µM | [17] 46.7 µM | [18] > 100 µM | [19] > 85.5 µM | [20] > 100 µM
> 100 µM: [1]

CCOC(=O)CCC(C(=O)OCC)n1nnc2cc(Nc3c(C)[n+]([O-])c4cc(F)c(OCC)cc4[n+]3[O-])ccc21 (stereo not drawn)
inactive: [2] > 100 µM | [3] > 100 µM | [4] > 100 µM | [5] 30.7 µM | [6] > 100 µM | [7] > 100 µM | [8] > 100 µM | [9] > 100 µM | [10] 52.6 µM | [11] > 100 µM | [12] > 100 µM | [13] 67.8 µM | [14] > 100 µM | [15] 25.5 µM | [16] > 100 µM | [17] > 100 µM | [18] 34.8 µM | [19] 22.2 µM | [20] > 100 µM
> 100 µM: [1]

CCN(CC)CCn1c2ccccc2c(=O)c2c(O)ccc(O)c21
33.8 µM: [1]
inactive: [2] 74.3 µM | [3] 42 µM | [4] 19.9 µM | [5] 42.1 µM | [6] 3.48 µM | [7] 47.4 µM | [8] 24.7 µM | [9] 35.9 µM | [10] 33.7 µM | [11] 35.5 µM | [12] 15.1 µM | [13] 45.6 µM | [14] 15.9 µM | [15] 30.5 µM | [16] 22.5 µM | [17] 6.49 µM | [18] 58.9 µM | [19] 50.5 µM | [20] 18.7 µM

O=c1[nH]c2ccccc2c2nc3ccccc3n12
> 100 µM: [1]
inactive: [2] > 100 µM | [3] > 100 µM | [4] > 100 µM | [5] 46.1 µM | [6] 6.64 µM | [7] 8.49 µM | [8] 13.1 µM | [9] 49.5 µM | [10] 7.03 µM | [11] 6.37 µM | [12] > 100 µM | [13] 42.5 µM | [14] > 100 µM | [15] 53.7 µM | [16] 83 µM | [17] > 100 µM | [18] > 100 µM | [19] 38.1 µM | [20] > 100 µM

COc1cc2ccc1OCc1cccc(n1)COc1ccc(cc1OC)/C=N\CCNCC/N=C\2
inactive: [2] > 100 µM | [3] > 100 µM | [4] > 100 µM | [5] 33.2 µM | [7] > 100 µM | [8] > 100 µM | [9] > 100 µM | [10] > 100 µM | [11] > 100 µM | [12] > 100 µM | [13] > 100 µM | [14] > 100 µM | [15] 80.9 µM | [16] 42.5 µM | [17] > 100 µM | [18] > 100 µM | [19] > 100 µM | [20] > 100 µM
> 100 µM: [1]

CCCCC1Cc2cc(O)ccc2-c2n1c1cc(O)ccc1[n+]2C.CCCCC1Cc2cc(O)ccc2-c2n1c1ccc(O)cc1[n+]2C (stereo not drawn)
active: [5] 1.1 µM
inactive: [2] 31.9 µM | [3] 37.9 µM | [4] 9.73 µM | [6] 24.4 µM | [7] 65.6 µM | [8] 19.5 µM | [9] 41.7 µM | [10] 56 µM | [11] > 100 µM | [12] 39 µM | [13] 2.59 µM | [14] 17.7 µM | [15] 4.57 µM | [16] 19 µM | [17] 26.1 µM | [18] 1.49 µM | [19] 43.8 µM | [20] 26.8 µM
51.8 µM: [1]

CCOC(=O)N1CC2(C(=O)OC)C=CC1C(C(=O)OC)C2 (stereo not drawn)
> 100 µM: [1]
inactive: [2] > 100 µM | [3] > 100 µM | [4] > 100 µM | [5] > 100 µM | [6] > 100 µM | [7] > 100 µM | [8] > 100 µM | [10] > 100 µM | [11] > 100 µM | [12] > 100 µM | [13] > 100 µM | [14] > 100 µM | [15] > 100 µM | [16] > 100 µM | [17] > 100 µM | [18] > 100 µM | [19] > 100 µM | [20] > 100 µM
